Reference: USRE48335E1, “Polymyxin derivatives as antimicrobial compounds” (priority 2014, dated 2020)
Values after ≈ are worked out from the molar mass of the structure shown. Positions of bridges follow the written chain, without caps; N, C: chain ends. Non-standard residues stand in square brackets, D forms with d. Residues, ends and D or L forms follow the SMILES beside them. *: point of attachment. X6 = O=C(c1ccc(F)c(Cl)c1)*; dNle = CCCC[C@@H](N)C(=O)O; Nonanoyl = CCCCCCCCC(=O)*; X1 = CC[C@H](C)CCCCC(=O)*; Heptanoyl = CCCCCCC(=O)*; Octanoyl = CCCCCCCC(=O)*; Dab = NCC[C@H](N)C(=O)O; Abu = CC[C@H](N)C(=O)O; Dap = NC[C@H](N)C(=O)O

What was measured:
[1] = tested on: Acinetobacter baumannii
Procedure, shortened: (§1)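 MICs were determined for the lipopeptides, tested as trifluoroacetic acid salts, by broth microdilution in cation-adjusted Mueller-Hinton broth following CLSI standards (M100-S18). Polymyxin B sulphate served as the control.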

[2] = tested on: Enterobacter cloacae
Procedure, shortened: as §1

[3] = tested on: Klebsiella pneumoniae
Procedure, shortened: as §1

[4] = tested on: Pseudomonas aeruginosa
Procedure, shortened: as §1

[5] = tested on: A. baumannii ATCC 19606; experiment: In vivo efficacy in mouse blood infection model (neutropenic Swiss mice); conditions: compound, free base 4 mg/kg intravenously 2 h after inoculation, blood at 4 h
Procedure, shortened: (§2)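 Neutropenic Swiss mice (cyclophosphamide 150 mg/kg day −4, 100 mg/kg day −1, i.p.) infected i.v. with early log-phase bacteria; 4 mg/kg free base i.v. given 2 h post-inoculation. Blood CFU by cardiac puncture 4 h post-dose; Δlog10 CFU/mL treated versus saline controls.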

[6] = tested on: K. pneumoniae FADDI-KP032; experiment: as above; conditions: compound, free base 4 mg/kg intravenously 2 h after inoculation, blood at 4 h
Procedure, shortened: as §2

[7] = tested on: P. aeruginosa ATCC 27853; experiment: as above; conditions: compound, free base 4 mg/kg intravenously 2 h after inoculation, blood at 4 h
Procedure, shortened: as §2

| SMILES | MIC [1] | Minimum inhibitory concentration, Ab A ATCC 17978 [1] | Minimum inhibitory concentration, Ab ATCC 19606 [1] | Minimum inhibitory concentration, Ab FADDI-AB034 [1] | Minimum inhibitory concentration, Ec FADDI-EC001 [2] | Minimum inhibitory concentration, Ec FADDI-EC003 [2] | Minimum inhibitory concentration, Ec FADDI-EC006 [2] | MIC [3] | MIC [4] | Minimum inhibitory concentration, Pa ATCC 27853 [4] | Minimum inhibitory concentration, Pa FADDI-PA022 [4] | Minimum inhibitory concentration, Pa FADDI-PA025 [4] | Δ log (Treated-Control at 4 h) [5] | Δ log (Treated-Control at 4 h) [6] | Δ log (Treated-Control at 4 h) [7] | other results |
| --- | --- | --- | --- | --- | --- | --- | --- | --- | --- | --- | --- | --- | --- | --- | --- | --- |
| CCCCCCC(=O)N[C@@H](CCN)C(=O)N[C@H](C(=O)N[C@@H](CN)C(=O)N[C@H]1CCNC(=O)[C@H]([C@@H](C)O)NC(=O)[C@H](CCN)NC(=O)[C@H](CCN)NC(=O)[C@H](CC)NC(=O)[C@@H](Cc2ccccc2)NC(=O)[C@H](CCN)NC1=O)[C@@H](C)O [Compound 131] (Heptanoyl-[Dab]T[Dap][Dab][Dab][dF][Abu][Dab][Dab]T; lactam 4-C) | 0.25 µg/mL (≈ 0.221 µM) | 0.25 µg/mL (≈ 0.221 µM) | 0.25 µg/mL (≈ 0.221 µM) | 0.25 µg/mL (≈ 0.221 µM) | <0.125 µg/mL | <0.125 µg/mL | <0.125 µg/mL | <0.125 µg/mL | 0.5 µg/mL (≈ 0.441 µM) | 0.5 µg/mL (≈ 0.441 µM) | 2 µg/mL (≈ 1.76 µM) | 4 µg/mL (≈ 3.53 µM) | −1.75 log10 CFU/mL | −3.44 log10 CFU/mL | −3.80 log10 CFU/mL |  |
| CCCCCCCC(=O)N[C@@H](CCN)C(=O)N[C@H](C(=O)N[C@H](CO)C(=O)N[C@H]1CCNC(=O)[C@H]([C@@H](C)O)NC(=O)[C@H](CCN)NC(=O)[C@H](CCN)NC(=O)[C@H]([C@@H](C)O)NC(=O)[C@@H](CCCC)NC(=O)[C@H](CCN)NC1=O)[C@@H](C)O [Compound 7] (Octanoyl-[Dab]T[dS][Dab][Dab][dNle]T[Dab][Dab]T; lactam 4-C) | 0.25 µg/mL (≈ 0.221 µM) | <0.125 µg/mL | 0.25 µg/mL (≈ 0.221 µM) | <0.125 µg/mL | 0.25 µg/mL (≈ 0.221 µM) | 0.25 µg/mL (≈ 0.221 µM) | 0.5 µg/mL (≈ 0.442 µM) | <0.125 µg/mL |  | 2 µg/mL (≈ 1.77 µM) | 4 µg/mL (≈ 3.54 µM) | >32 µg/mL | −2.87 log10 CFU/mL | −3.39 log10 CFU/mL | −0.61 log10 CFU/mL |  |
| CC[C@@H]1NC(=O)[C@@H](CC(C)C)NC(=O)[C@H](CCN)NC(=O)[C@@H](NC(=O)[C@H](CN)NC(=O)[C@@H](NC(=O)[C@H](CCN)NC(=O)c2ccc(F)c(Cl)c2)[C@@H](C)O)CCNC(=O)[C@H]([C@@H](C)O)NC(=O)[C@H](CCN)NC(=O)[C@H](CCN)NC1=O [Compound 110] (X6-[Dab]T[Dap][Dab][Dab][dL][Abu][Dab][Dab]T; lactam 4-C) | 2 µg/mL (≈ 1.75 µM) | 0.5 µg/mL (≈ 0.437 µM) | 2 µg/mL (≈ 1.75 µM) | 0.5 µg/mL (≈ 0.437 µM) | 1 µg/mL (≈ 0.874 µM) | 1 µg/mL (≈ 0.874 µM) | 0.5 µg/mL (≈ 0.437 µM) | 0.25 µg/mL (≈ 0.219 µM) | 0.5 µg/mL (≈ 0.437 µM) | 0.5 µg/mL (≈ 0.437 µM) | 0.5 µg/mL (≈ 0.437 µM) | 1 µg/mL (≈ 0.874 µM) | −1.57 log10 CFU/mL | −2.50 log10 CFU/mL | −3.30 log10 CFU/mL |  |
| CCCCCCCCC(=O)N[C@@H](CCN)C(=O)N[C@H](C(=O)N[C@@H](CN)C(=O)N[C@H]1CCNC(=O)[C@H]([C@@H](C)O)NC(=O)[C@H](CCN)NC(=O)[C@H](CCN)NC(=O)[C@H](C)NC(=O)[C@@H](CC(C)C)NC(=O)[C@H](CCN)NC1=O)[C@@H](C)O [Compound 132] (Nonanoyl-[Dab]T[Dap][Dab][Dab][dL]A[Dab][Dab]T; lactam 4-C) | 0.5 µg/mL (≈ 0.449 µM) | 0.5 µg/mL (≈ 0.449 µM) | 0.5 µg/mL (≈ 0.449 µM) | 0.25 µg/mL (≈ 0.225 µM) | 0.25 µg/mL (≈ 0.225 µM) | <0.125 µg/mL | <0.125 µg/mL | 0.25 µg/mL (≈ 0.225 µM) | 0.5 µg/mL (≈ 0.449 µM) | 0.5 µg/mL (≈ 0.449 µM) | 1 µg/mL (≈ 0.898 µM) | 4 µg/mL (≈ 3.59 µM) | −1.58 log10 CFU/mL | −3.16 log10 CFU/mL | −4.39 log10 CFU/mL |  |
| CC[C@H](C)CCCCC(=O)N[C@@H](CCN)C(=O)N[C@H](C(=O)N[C@@H](CCN)C(=O)N[C@H]1CCNC(=O)[C@H]([C@@H](C)O)NC(=O)[C@H](CCN)NC(=O)[C@H](CCN)NC(=O)[C@H]([C@@H](C)O)NC(=O)[C@@H](CC(C)C)NC(=O)[C@H](CCN)NC1=O)[C@@H](C)O [Compound 152, polymyxin M1] (X1-[Dab]T[Dab][Dab][Dab][dL]T[Dab][Dab]T; lactam 4-C) | 1 µg/mL (≈ 0.864 µM) |  |  |  |  |  |  | 0.5 µg/mL (≈ 0.432 µM) | 1 µg/mL (≈ 0.864 µM) |  |  |  | −1.61 log10 CFU/mL | −3.86 log10 CFU/mL | −3.24 log10 CFU/mL | Minimum inhibitory concentration (MIC), Ab ATCC 17978 [1]: 1 µg/mL (≈ 0.864 µM); Minimum inhibitory concentration (MIC), Ab ATCC 19606 [1]: 1 µg/mL (≈ 0.864 µM); Minimum inhibitory concentration (MIC), Ab FADDI-AB034 [1]: 1 µg/mL (≈ 0.864 µM); Minimum inhibitory concentration (MIC), Ec FADDI-EC001 [2]: 0.5 µg/mL (≈ 0.432 µM); Minimum inhibitory concentration (MIC), Ec FADDI-EC003 [2]: 0.5 µg/mL (≈ 0.432 µM); Minimum inhibitory concentration (MIC), Ec FADDI-EC006 [2]: 0.25 µg/mL (≈ 0.216 µM); Minimum inhibitory concentration (MIC), Pa ATCC 27853 [4]: 1 µg/mL (≈ 0.864 µM); Minimum inhibitory concentration (MIC), Pa FADDI-PA022 [4]: 1 µg/mL (≈ 0.864 µM); Minimum inhibitory concentration (MIC), Pa FADDI-PA025 [4]: 32 µg/mL (≈ 27.6 µM) |
| CCCCCCCC(=O)N[C@@H](CCN)C(=O)N[C@H](C(=O)N[C@@H](CCN)C(=O)N[C@H]1CCNC(=O)[C@H]([C@@H](C)O)NC(=O)[C@H](CCN)NC(=O)[C@H](CCN)NC(=O)[C@H](CO)NC(=O)[C@@H](CC(C)C)NC(=O)[C@H](CCN)NC1=O)[C@@H](C)O [Compound 25] (Octanoyl-[Dab]T[Dab][Dab][Dab][dL]S[Dab][Dab]T; lactam 4-C) | 8 µg/mL (≈ 7.08 µM) | 4 µg/mL (≈ 3.54 µM) | 8 µg/mL (≈ 7.08 µM) | 4 µg/mL (≈ 3.54 µM) | <0.125 µg/mL | 0.25 µg/mL (≈ 0.221 µM) | 0.5 µg/mL (≈ 0.443 µM) | 0.25 µg/mL (≈ 0.221 µM) | >32 µg/mL | >32 µg/mL | 0.5 µg/mL (≈ 0.443 µM) | >32 µg/mL | 0.27 log10 CFU/mL | −2.65 log10 CFU/mL |  |  |
